Consider 17 molecules from US8815919B2, “Oxadiazole derivatives” (Merck Serono SA, priority 2009, dated 2014).

Each structure is given as a SMILES string. Counter-ions that a name gives are not always drawn. Like-named read-outs stand apart in the source and are kept apart here.

The target of data set [1] is T1, S1P3 (Homo sapiens, UniProt Q99500). Briefly: 35S-GTPγS binding on membranes of CHO cells expressing S1P3. Format: biochemical. The settings on record: read-out: S1P3/GTPG EC50. Here is the method:
(§1) Membranes were prepared from CHO cells expressing S1P1 or S1P3 for use in ligand and […] binding studies. Cells were suspended in 50 mM TRIS, pH 7.4, 2 mM EDTA, 250 mM Sucrose (buffer A) and 1× Complete protease inhibitor cocktail (Roche), and disrupted at 4° C. by N2 decompression using a cell disruption bomb (Parr Instrument). Following centrifugation at 1000 RPM for 10 min at 4° C., the supernatant was diluted (2×) in buffer A and centrifuged again at 19000 RPM for 75 min at 4° C. The pellet was then suspended in 10 mM HEPES, pH 7.4, 1 mM EDTA, 250 mM Sucrose (Buffer B), and 1× Complete EDTA-free protease inhibitor cocktail and homogenized using a potter. Membranes were flash frozen in liquid N2 and stored at −80° C.
(§2) Membranes (1 to 10 μg protein) prepared as described above, were incubated in 96-well Scintiplates (PerkinElmer) with test compounds diluted in DMSO, in 140 μl of 20 mM HEPES, pH 7.4, 10 mM MgCl2, 2 μg/well Saponin, 0.2% fatty acid free BSA (Assay buffer), 125 mM NaCl and 1.5 μM GDP. The assay was initiated with the addition of 60 μl of 1.5 nM [35S]-GTPγS (1100 Ci/mmol; GE Healthcare) in assay buffer. After 60 min incubation at 30° C. on a shaker, plates were centrifuged for 10 min at 2000 RPM. Supernatant was discarded and membrane bound radioactivity was measured on a PerkinElmer 1450 MicroBeta counter. Triplicate samples were averaged and expressed as % response relative to S1P activation in absence of compound (n=2).
(§3) The “potency” or the “activity” of the compounds is determined by the EC50 values as evaluated in the above described 35S-GTPγS binding assay.
For orientation: Binding of GTPγS marks nucleotide exchange on a G protein.

Data set [2] addresses T2, S1P1 (Homo sapiens, UniProt P21453). In words: 35S-GTPγS binding on membranes of CHO cells expressing S1P1. Format: biochemical. The conditions noted are these: read-out: S1P1/GTPG EC50. Here is the method:
as §1, §2, §3
Target sequence in this assay (P21453 whole entry, species assumed): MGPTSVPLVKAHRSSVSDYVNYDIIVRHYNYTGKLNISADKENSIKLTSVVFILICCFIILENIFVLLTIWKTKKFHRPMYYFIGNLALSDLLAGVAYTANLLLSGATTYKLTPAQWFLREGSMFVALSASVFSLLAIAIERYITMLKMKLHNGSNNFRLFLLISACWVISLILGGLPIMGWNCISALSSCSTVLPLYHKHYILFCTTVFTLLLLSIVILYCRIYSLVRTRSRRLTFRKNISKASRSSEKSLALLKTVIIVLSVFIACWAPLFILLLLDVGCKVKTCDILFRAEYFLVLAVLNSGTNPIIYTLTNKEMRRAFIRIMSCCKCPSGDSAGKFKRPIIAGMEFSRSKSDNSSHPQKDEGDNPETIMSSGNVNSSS

For data set [3], the target named is T1, S1P3. Briefly: Receptor binding assay, [33P]sphingosine 1-phosphate competition, S1P3 membranes, WGA SPA beads. The method in brief: (§4)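 Competition of [33P]S1P ([…]) on CHO cell membranes with WGA SPA beads in 50 mM HEPES pH 7.5, 5 mM MgCl2, 100 mM NaCl, 0.4% fatty acid-free BSA; 60 min at RT. Triplicates normalised to total binding and nonspecific binding (1000-fold excess unlabeled S1P).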

For data set [4], the target named is T2, S1P1. Briefly: Receptor binding assay, [33P]sphingosine 1-phosphate competition, S1P1 membranes, WGA SPA beads. The procedure, abridged: as §4
Target sequence in this assay (P21453 whole entry, species assumed): as above
Data set [5] addresses T2, S1P1. Briefly: S1P1 internalization assay in S1P1-U2OS cells (S1P1-EGFP), cell imaging. Format: cell-based. The arrangement: host or cells: U2OS (human bone osteosarcoma epithelial cells), CMV promoter, geneticin selection. The conditions noted are these: 1 hour incubation. The method in brief:
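U2OS cells stably expressing human S1P1-EGFP, plated overnight in 1% FCS medium, then serum-starved 2 h in 0.1% fatty-acid-free BSA before 1 h compound exposure at 37 °C. After PFA fixation and Hoechst staining, internalization imaged as EGFP spot count per nucleus.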
Target sequence in this assay (P21453 whole entry): as the sequence (P21453 whole entry, species assumed) above

[6] abbreviates: 384 well-plate, read-out: S1P3 binding Ki (M) (384 well-plate).
Where [7] appears, read: 96 well-plate, read-out: S1P1 binding Ki (M) (96 well-plate).
[8] abbreviates: 96 well-plate, read-out: S1P3 binding Ki (M) (96 well-plate).

T1 sequence (Q99500 whole entry, species assumed): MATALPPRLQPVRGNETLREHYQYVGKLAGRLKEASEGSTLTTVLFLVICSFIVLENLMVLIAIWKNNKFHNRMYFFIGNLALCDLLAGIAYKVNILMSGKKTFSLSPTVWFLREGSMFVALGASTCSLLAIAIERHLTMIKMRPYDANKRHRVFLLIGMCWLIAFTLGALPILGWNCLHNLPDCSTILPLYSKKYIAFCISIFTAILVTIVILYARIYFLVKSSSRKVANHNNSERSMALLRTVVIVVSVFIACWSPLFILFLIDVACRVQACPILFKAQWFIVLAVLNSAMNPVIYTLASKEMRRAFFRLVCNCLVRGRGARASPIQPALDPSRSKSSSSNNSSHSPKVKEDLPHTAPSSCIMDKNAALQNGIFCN

On to `COC(C)c1cc(-c2nc(-c3ccc(CN(C)CC(=O)O)cc3)no2)ccc1-c1ccccc1C` (stereo not shown) (as salt: hydrochloride) (hydrate or solvate) [Example 140, N-(4-{5-[2-(1-methoxyethyl)-2′-methylbiphenyl-4-yl]-1,2,4-oxadiazol-3-yl}benzyl)-N-methylglycine, hydrochloride salt], for which the melting point lay in the range of 179 to 181 °C.
On the same count and under the same terms, in the case of `COCc1cc(-c2nc(-c3cccc(CN(C)CC(=O)O)c3)no2)ccc1-c1cccc(F)c1C` (as salt: hydrochloride) [Example 35, N-(3-{5-[3′-fluoro-2-(methoxymethyl)-2′-methylbiphenyl-4-yl]-1,2,4-oxadiazol-3-yl}benzyl)-N-methylglycine, hydrochloride salt] it was 216 to 218 °C; in that of `COCc1cc(-c2nc(-c3cccc(CN(C)CC(=O)O)c3)no2)ccc1-c1ccc(F)cc1C` (as salt: hydrochloride) [Example 36, N-(3-{5-[4′-fluoro-2-(methoxymethyl)-2′-methylbiphenyl-4-yl]-1,2,4-oxadiazol-3-yl}benzyl)-N-methylglycine, hydrochloride salt], 214 to 216 °C.
Turning to `COCc1cc(-c2nc(-c3cccc(CN(C)CC(=O)O)c3)no2)ccc1-c1cc(F)ccc1C` (as salt: hydrochloride) [Example 37, N-(3-{5-[5′-fluoro-2-(methoxymethyl)-2′-methylbiphenyl-4-yl]-1,2,4-oxadiazol-3-yl}benzyl)-N-methylglycine, hydrochloride salt], the melting point is 177 to 183 °C.
The same measure, in the same setting: the result for `COCc1cc(-c2nc(-c3ccc(CN(C)CC(=O)O)cc3)no2)ccc1-c1ccccc1Cl` (as salt: hydrochloride) [Example 118, N-(4-{5-[2′-chloro-2-(methoxymethyl)biphenyl-4-yl]-1,2,4-oxadiazol-3-yl}benzyl)-N-methylglycine, hydrochloride salt] reads 194 to 200 °C; that for `COCc1cc(-c2nc(-c3ccc(CN(C)CC(=O)O)c(F)c3)no2)ccc1-c1ccccc1Cl` (as salt: hydrochloride) [Example 119, N-(4-{5-[2′-chloro-2-(methoxymethyl)biphenyl-4-yl]-1,2,4-oxadiazol-3-yl}-2-fluorobenzyl)-N-methylglycine, hydrochloride salt], 181 to 188 °C; that for `Cc1cc(-c2nc(-c3ccc(CN(C)CC(=O)O)cc3)no2)ccc1-c1ccccc1C(F)F` (as salt: hydrochloride) [Example 137, N-(4-{5-[2′-(difluoromethyl)-2-methylbiphenyl-4-yl]-1,2,4-oxadiazol-3-yl}benzyl)-N-methylglycine, hydrochloride salt], 229 to 234 °C.
Turning to `COCc1cc(-c2nc(-c3cccc(COCC(=O)O)c3)no2)ccc1N1CCCCC1C` (stereo not shown) [Example 4, [(3-{5-[3-(methoxymethyl)-4-(2-methylpiperidin-1-yl)phenyl]-1,2,4-oxadiazol-3-yl}benzyl)oxy]acetic acid, hydrochloride salt], the EC50 on S1P3 [1] is 313 nM; on S1P1 [2] it was 1.05 nM. Besides, the Ki is 7.53e-07 M at S1P3 [3] (setting [6]) and 4.76e-10 M at S1P1 [4] (setting [7]).
Turning to `COCc1cc(-c2nc(-c3cccc(S(C)(=O)=O)c3)no2)ccc1N1CCCCC1C` (stereo not shown) [Example 6, 1-(2-(methoxymethyl)-4-{3-[3-(methylsulfonyl)phenyl]-1,2,4-oxadiazol-5-yl}phenyl)-2-methylpiperidine, hydrochloride salt], the values for the EC50 at S1P3 [1], on S1P1 [5] and on S1P1 [2] were 2280 nM, 4.39 nM and 1.9 nM, respectively. The Ki on S1P1 [4] (setting [7]) turned out to be 1.24e-09 M.
Consider `COCc1cc(-c2nc(-c3cccc(COCCC(=O)O)c3)no2)ccc1-c1ccccc1C` [Example 7, 3-[(3-{5-[2-(methoxymethyl)-2′-methylbiphenyl-4-yl]-1,2,4-oxadiazol-3-yl}benzyl)oxy]propanoic acid], for which the EC50 at S1P3 [1] came out at 2010 nM; on S1P1 [5], 25.5 nM; on S1P1 [2], 8.05 nM. Besides, the inhibition constant (Ki) at S1P1 [4] (setting [7]) amounted to 3.29e-09 M.
In the case of `COCc1cc(-c2nc(-c3cccc(CN(C)CC(=O)O)c3)no2)ccc1-c1ccccc1F` [Example 10, N-(3-{5-[2′-fluoro-2-(methoxymethyl)biphenyl-4-yl]-1,2,4-oxadiazol-3-yl}benzyl)-N-methylolycine, hydrochloride salt], the EC50 was 130 nM on S1P3 [1], 3.31 nM at S1P1 [5] and 0.907 nM on S1P1 [2]. Further, the Ki on S1P3 [3] (setting [8]) came out at 2.33e-08 M; on S1P3 [3] (setting [6]), 1.22e-07 M; on S1P1 [4] (setting [7]), 1.79e-10 M.
As for `COCc1cc(-c2nc(-c3cccc(CN(C)CC(=O)O)c3)no2)ccc1-c1ccccc1Cl` [Example 11, N-(3-{5-[2′-chloro-2-(methoxymethyl)biphenyl-4-yl]-1,2,4-oxadiazol-3-yl}benzyl)-N-methylglycine, hydrochloride salt], the figures for the EC50 on S1P3 [1], on S1P1 [5] and on S1P1 [2] were 673 nM, 10.6 nM and 2.74 nM, respectively. The Ki on S1P1 [4] (setting [7]) worked out at 6.21e-10 M.
With `CC1CCCCN1c1ccc(-c2nc(-c3cccc(COCCC(=O)O)c3)no2)cc1C(F)(F)F` (stereo not shown) [Example 12, 3-[(3-{5-[4-(2-methylpiperidin-1-yl)-3-(trifluoromethyl)phenyl]-1,2,4-oxadiazol-3-yl}benzyl)oxy]propanoic acid, hydrochloride salt], the EC50 at S1P3 [1] was 692 nM; at S1P1 [5] it was 9.84 nM; at S1P1 [2], 4.61 nM. Also, at S1P1 [4] (setting [7]), the inhibitory constant (Ki) was found to be 3.08e-09 M.
Turning to `CC1CCCCN1c1ccc(-c2nc(-c3cccc(CN(C)CC(=O)O)c3)no2)cc1C(F)(F)F` (stereo not shown) [Example 13, N-methyl-N-(3-{5-[4-(2-methylpiperidin-1-yl)-3-(trifluoromethyl)phenyl]-1,2,4-oxadiazol-3-yl}benzyl)glycine], the EC50 on S1P3 [1] stood at 470 nM; on S1P1 [5], 7.38 nM; on S1P1 [2], 0.96 nM. Further, the Ki on S1P3 [3] (setting [8]) was 8.95e-08 M; on S1P3 [3] (setting [6]), 2.75e-07 M; at S1P1 [4] (setting [7]), 4.58e-10 M.
Turning to `COCc1cc(-c2nc(-c3cc(F)cc(CN(C)CCC(=O)O)c3)no2)ccc1-c1ccccc1C` [Example 21, N-(3-fluoro-5-{5-[2-(methoxymethyl)-2′-methylbiphenyl-4-yl]-1,2,4-oxadiazol-3-yl}benzyl)-N-methyl-beta-alanine, hydrochloride salt], the EC50 on S1P3 [1] came to 15 nM; on S1P1 [5], 4.52 nM; on S1P1 [2], 0.332 nM. Further, the Ki at S1P3 [3] (setting [8]) came out at 1.13e-08 M; on S1P3 [3] (setting [6]) it was 1.56e-08 M; at S1P1 [4] (setting [7]) it was 1.17e-10 M; on S1P1 [4] (384 well-plate, read-out: S1P1 binding Ki (M) (384 well-plate)), 9.99e-10 M.
`COCc1cc(-c2nc(-c3ccc(OCCO)cc3)no2)ccc1-c1ccccc1C` [Example 23, 2-(4-{5-[2-(methoxymethyl)-2′-methylbiphenyl-4-yl]-1,2,4-oxadiazol-3-yl}phenoxy)ethanol]: the EC50 on S1P3 [1] was found to be 199 nM; on S1P1 [2], 7.07 nM. Also, the inhibition constant Ki on S1P1 [4] (setting [7]) was found to be 2.17e-09 M.
In the same order, the values of `COCc1cc(-c2nc(-c3cccc(CC(=O)NCCNC(C)=O)c3)no2)ccc1-c1ccccc1C` [Example 25, N-[2-(acetylamino)ethyl]-2-(3-{5-[2-(methoxymethyl)-2′-methylbiphenyl-4-yl]-1,2,4-oxadiazol-3-yl}phenyl)acetamide] are 635 nM, 7.08 nM and 8.51e-10 M.

What is called melting point is the temperature of the solid-liquid transition. Broadly, the Ki is the equilibrium dissociation constant of an inhibitor or competing ligand from its target.
